Results from US20220340547A1, “INDOLE DERIVATIVE-CONTAINING INHIBITOR, PREPARATION METHOD THEREFOR AND APPLICATION THEREOF” (Shanghi Hansoh Biosoh Biomedical Co., Ltd., priority 2019, published 2022).
pIC50: −log10 of the molar value.

What was measured:
[1] = molecular target: EGFR WT (Homo sapiens, UniProt P00533); test: TR-FRET inhibition of kinase activity of wild type EGFR; type: biochemical
Description: Determination of the Inhibitory Effect of the Compound of the Present Invention on the Kinase Activity of Wild Type EGFR
Experimental objective: The objective of this test example is to determine the inhibitory effect of the compound on the kinase activity of wild type EGFR.
(§1) Experimental process: The experiment applied the TR-FRET (time-resolved fluorescence resonance energy transfer) method to study the inhibitory effect of the compound on the kinase activity of wild type EGFR. The experiment was carried out in a 384-well plate. Experimental buffer (50 mM HEPES, 1 mM EGTA, 10 mM MgCl2, 2 mM DTT, 0.01% Tween-20) was formulated. The compound was diluted in gradient to different concentrations with the experimental buffer. 2 μL of the solution was added to each well of the 384-well plate. 4 μL of diluted EGFR kinase solution (0.001-0.5 nM) was added, and the plate was incubated at room temperature for 10 minutes. 4 μL of ULight-poly GT/ATP mixed solution was added, and the plate was incubated at room temperature for 30 to 60 minutes. 5 μL of EDTA stop solution and 5 μL of Eu-labeled antibody detection solution were added, and the plate was incubated at room temperature for 1 hour.
(§2) Experimental Data Processing Method:
(§3) The concentration and inhibition rate were fitted to a nonlinear regression curve by Graphpad Prism software to obtain the IC50 value.

[2] = test system: A431 cell line; test: Proliferation of A431 cell line (CellTiter-Glo); type: cell-based; settings: Homo sapiens, A-431, 72 h
Experimental: Test Example 3. Determination of the Inhibitory Effect of the Compound of the Present Invention on the Proliferation of Ba/F3 EGFR Mutant Cell Line and A431 Cell Line
(§4) Experimental objective: The objective of this test example is to determine the inhibitory effect of the compound on the proliferation of Ba/F3 EGFR mutant cell line and A431 cell line
(§5) Experimental instruments: Microplate reader (BioTek Synergy H1), pipette (Eppendorf & Rainin).
(§6) A431 cells were cultured, and harvested after reaching a suitable density. The cells were adjusted to an appropriate cell concentration with the complete medium. The cell suspension were spread on a 96-well plate (90 μL per well), and the plate was placed in a 37° C., 5% CO2 incubator overnight to let the cells adhere to the wall. Solutions of the compound at different concentrations were formulated with DMSO and culture medium. Solvent control was set. The solution of the compound was added to the 96-well plate (10 L per well), and the plate was incubated in the 37° C., 5% CO2 incubator for 72 h. CellTiter-Glo solution was added and mixed well by shaking, and the plate was incubated in the dark for 10 minutes. The values were measured by BioTek Synergy H1 microplate reader.
as §2
(§7) The inhibition rate was calculated using the […] signal value. The concentration and inhibition rate were fitted to a nonlinear regression curve by Graphpad Prism software to obtain the IC50 value.

[3] = molecular target: EGFR D770_N771insNPG (Homo sapiens, UniProt P00533, INS770NPG); test: TR-FRET inhibition of kinase activity of EGFR exon 20 insertion mutation; type: biochemical
Description: Determination of the Inhibitory Effect of the Compound of the Present Invention on the Kinase Activity of EGFR Exon 20 Insertion Mutation
Experimental objective: The objective of this test example is to determine the inhibitory effect of the compound on the kinase activity of EGFR exon 20 insertion mutation.
as §1, with “of EGFR exon 20 insertion mutation.” for “of wild type EGFR.”, “buffer. 2.5” for “buffer. 2”, “plate. 2.5” for “plate. 4”, “minutes. 5” for “minutes. 4”
as §2, §3

[4] = molecular target: Ba/F3 EGFR-D770-N771ins_SVD (Homo sapiens, UniProt P00533, DUP768-770, cells depend on it); test: Proliferation of Ba/F3 EGFR mutant cell line (CellTiter-Glo); type: cell-based, mouse; settings: 72 h to 144 h, read-out: Ba/F3 EGFR-D770-N771ins_SVD IC50
Experimental: Determination of the Inhibitory Effect of the Compound of the Present Invention on the Proliferation of Ba/F3 EGFR Mutant Cell Line and A431 Cell Line
as §4, §5
as §6, with “Ba/F3 EGFR mutant” for “A431”, “The solution of the compound was added to the 96-well plate (10 L per well), and the plate was incubated in the 37° C., 5% CO2 incubator for 72 h.” left out
as §2, §7

Chain of EGFR WT (P00533 25-1210): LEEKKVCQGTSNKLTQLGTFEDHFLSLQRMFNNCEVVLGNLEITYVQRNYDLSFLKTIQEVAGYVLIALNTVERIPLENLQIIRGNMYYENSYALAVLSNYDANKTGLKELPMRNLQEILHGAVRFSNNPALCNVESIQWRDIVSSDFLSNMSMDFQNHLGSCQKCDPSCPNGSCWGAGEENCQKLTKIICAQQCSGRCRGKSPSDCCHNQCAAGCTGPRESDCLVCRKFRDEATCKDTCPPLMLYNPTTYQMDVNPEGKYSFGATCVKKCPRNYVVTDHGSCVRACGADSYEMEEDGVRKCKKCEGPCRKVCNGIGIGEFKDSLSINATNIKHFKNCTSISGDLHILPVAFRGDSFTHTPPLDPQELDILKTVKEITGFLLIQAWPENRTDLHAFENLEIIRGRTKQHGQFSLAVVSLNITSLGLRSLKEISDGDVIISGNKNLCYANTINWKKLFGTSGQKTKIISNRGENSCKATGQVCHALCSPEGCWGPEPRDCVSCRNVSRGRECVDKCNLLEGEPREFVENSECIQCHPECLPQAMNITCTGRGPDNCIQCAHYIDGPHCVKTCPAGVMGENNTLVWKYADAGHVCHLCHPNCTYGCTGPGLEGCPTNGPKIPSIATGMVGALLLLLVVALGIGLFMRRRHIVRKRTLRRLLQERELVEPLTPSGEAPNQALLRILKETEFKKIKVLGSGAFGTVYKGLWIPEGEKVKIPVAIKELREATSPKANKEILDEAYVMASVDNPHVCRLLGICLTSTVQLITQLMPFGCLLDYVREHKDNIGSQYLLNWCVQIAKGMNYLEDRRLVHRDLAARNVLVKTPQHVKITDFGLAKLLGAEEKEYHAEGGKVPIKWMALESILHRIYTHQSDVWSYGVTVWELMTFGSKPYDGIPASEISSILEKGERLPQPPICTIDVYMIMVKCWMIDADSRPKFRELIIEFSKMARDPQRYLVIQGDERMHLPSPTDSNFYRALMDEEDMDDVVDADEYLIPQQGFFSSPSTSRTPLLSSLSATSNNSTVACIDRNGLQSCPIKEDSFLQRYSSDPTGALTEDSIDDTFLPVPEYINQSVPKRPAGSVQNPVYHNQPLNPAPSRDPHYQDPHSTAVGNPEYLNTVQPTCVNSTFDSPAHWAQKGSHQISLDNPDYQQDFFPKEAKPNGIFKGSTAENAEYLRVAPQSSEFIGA
Chain of Ba/F3 EGFR-D770-N771ins_SVD (P00533 with tags, fused parts or gaps DUP768-770): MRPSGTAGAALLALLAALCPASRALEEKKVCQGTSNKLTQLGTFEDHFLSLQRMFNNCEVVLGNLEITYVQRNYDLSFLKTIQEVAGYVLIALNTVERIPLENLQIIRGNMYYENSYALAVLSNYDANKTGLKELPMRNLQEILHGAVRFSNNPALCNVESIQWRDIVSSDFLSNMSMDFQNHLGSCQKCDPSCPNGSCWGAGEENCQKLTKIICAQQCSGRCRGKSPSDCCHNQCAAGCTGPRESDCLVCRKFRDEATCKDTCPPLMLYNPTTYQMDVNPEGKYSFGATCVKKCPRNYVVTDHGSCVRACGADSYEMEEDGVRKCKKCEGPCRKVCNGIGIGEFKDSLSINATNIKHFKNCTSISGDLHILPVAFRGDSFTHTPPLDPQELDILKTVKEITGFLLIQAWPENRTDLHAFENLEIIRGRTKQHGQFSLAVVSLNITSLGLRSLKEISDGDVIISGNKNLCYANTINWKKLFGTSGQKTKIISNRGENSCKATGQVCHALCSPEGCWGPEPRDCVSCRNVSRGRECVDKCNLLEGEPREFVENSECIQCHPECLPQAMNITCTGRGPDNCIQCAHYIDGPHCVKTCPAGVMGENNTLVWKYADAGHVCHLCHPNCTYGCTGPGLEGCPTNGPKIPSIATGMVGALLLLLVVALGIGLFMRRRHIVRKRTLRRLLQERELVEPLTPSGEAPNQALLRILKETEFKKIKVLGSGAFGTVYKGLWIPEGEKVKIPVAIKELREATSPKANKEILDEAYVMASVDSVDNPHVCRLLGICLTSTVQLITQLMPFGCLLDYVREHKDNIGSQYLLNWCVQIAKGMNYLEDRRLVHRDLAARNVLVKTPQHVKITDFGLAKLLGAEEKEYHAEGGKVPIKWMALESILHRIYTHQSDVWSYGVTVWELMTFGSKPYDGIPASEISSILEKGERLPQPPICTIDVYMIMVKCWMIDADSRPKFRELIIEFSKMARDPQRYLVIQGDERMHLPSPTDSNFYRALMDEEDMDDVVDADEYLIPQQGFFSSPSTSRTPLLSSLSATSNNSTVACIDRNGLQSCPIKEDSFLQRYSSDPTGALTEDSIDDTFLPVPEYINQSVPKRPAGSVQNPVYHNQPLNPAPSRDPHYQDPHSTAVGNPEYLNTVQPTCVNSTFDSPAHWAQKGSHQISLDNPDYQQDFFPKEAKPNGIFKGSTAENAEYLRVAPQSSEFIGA
Chain of EGFR D770_N771insNPG (P00533 with tags, fused parts or gaps INS770NPG limits assumed): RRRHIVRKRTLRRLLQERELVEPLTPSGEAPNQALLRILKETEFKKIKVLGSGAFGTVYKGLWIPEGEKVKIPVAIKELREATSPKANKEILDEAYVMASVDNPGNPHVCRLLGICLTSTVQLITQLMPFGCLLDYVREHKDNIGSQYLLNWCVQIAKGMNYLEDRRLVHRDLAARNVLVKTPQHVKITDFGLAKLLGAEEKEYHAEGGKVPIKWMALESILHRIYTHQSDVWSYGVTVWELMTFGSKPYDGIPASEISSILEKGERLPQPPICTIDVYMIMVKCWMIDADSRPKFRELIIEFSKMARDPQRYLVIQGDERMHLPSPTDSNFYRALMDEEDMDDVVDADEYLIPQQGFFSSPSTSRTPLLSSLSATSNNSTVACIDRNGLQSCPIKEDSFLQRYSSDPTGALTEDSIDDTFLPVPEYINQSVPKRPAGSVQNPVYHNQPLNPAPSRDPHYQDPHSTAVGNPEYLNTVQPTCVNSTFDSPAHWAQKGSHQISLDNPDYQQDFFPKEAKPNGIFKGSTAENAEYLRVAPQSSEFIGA

Row | SMILES | pIC50 [1] | further results
1 | C=CC(=O)Nc1cc(Nc2ncc(C#N)c(-n3nc(C)c4ccccc43)n2)c(OC)cc1N(C)CCN(C)C [Example 138, N-(5-((5-Cyano-4-(3-methyl-1H-indazol-1-yl)pyrimidin-2-yl)amino)-2-((2-(dimethylamino)ethyl)(methyl)amino)-4-methoxyphenyl)acrylamide] | < 6.00 | 
2 | C=CC(=O)Nc1cc(Nc2ncc(C(=O)N(C)C)c(-c3cn(C)c4ccccc34)n2)c(OC)cc1N1C[C@H]2CN(C)C[C@H]2C1 [Example 31, 2-((5-Acrylamido-2-methoxy-4-((3aR,6aS)-5-methylhexahydropyrrolo[3,4-c]pyrrol-2(1H)-yl)phenyl)amino)-N,N-dimethyl-4-(1-methyl-1H-indol-3-yl)pyrimidine-5-carboxamide] | < 6.00 | 
3 | CC#CC(=O)Nc1cc(Nc2ncc(C(F)(F)F)c(-c3cn(C4CC4)c4ccccc34)n2)c(OC)cc1N1C[C@H]2CN(C)C[C@H]2C1 [Example 30, N-(5-((4-(1-Cyclopropyl-1H-indol-3-yl)-5-(trifluoromethyl)pyrimidin-2-yl)amino)-4-methoxy-2-((3aR,6aS)-5-methylhexahydropyrrolo[3,4-c]pyrrol-2(1H)-yl)phenyl)but-2-ynamide] | 6.34 | 
4 | C=CC(=O)Nc1cc(Nc2ncc(C#N)c(-c3cn(C4CC4)c4cccc(F)c34)n2)c(OC)cc1N(C)CCN(C)C [Example 120, N-(5-((5-Cyano-4-(1-cyclopropyl-4-fluoro-1H-indol-3-yl)pyrimidin-2-yl)amino)-2-((2-(dimethylamino)ethyl)(methyl)amino)-4-methoxyphenyl)acrylamide] | < 6.00 | 
5 | C=CC(=O)Nc1cc(Nc2ncc(C#N)c(-c3cn(C4CC4)c4ccccc34)n2)c(OC)cc1N1CC[C@@H](N(C)C)C1 [Example 78, (R)—N-(5-((5-Cyano-4-(1-cyclopropyl-1H-indol-3-yl)pyrimidin-2-yl)amino)-2-(3-(dimethylamino)pyrrolidin-1-yl)-4-methoxyphenyl)acrylamide] |  | pIC50 [2]: 6.59; pIC50 [3]: 9.30; GI50 [4]: 0.0482 µM
6 | C=CC(=O)Nc1cc(Nc2ncc(-c3nccs3)c(-c3cn(C4CC4)c4ccccc34)n2)c(OC)cc1N1C[C@H]2CN(C)C[C@H]2C1 [Example 45, N-(5-((4-(1-Cyclopropyl-1H-indol-3-yl)-5-(thiazol-2-yl)pyrimidin-2-yl)amino)-4-methoxy-2-((3aR,6aS)-5-methylhexahydropyrrolo[3,4-c]pyrrol-2(1H)-yl)phenyl)acrylamide] |  | pIC50 [2]: 6.68; pIC50 [3]: 9.00; GI50 [4]: 0.0534 µM

The remaining compounds from weak to strong by pIC50 [1], led by results:

Row | pIC50 [1] | SMILES | further results
7 | 6.60 | C=CC(=O)Nc1cc(Nc2ncc(N=S(C)(C)=O)c(-c3cn(C)c4ccccc34)n2)c(OC)cc1N(C)CCN(C)C [Example 136, N-(5-((5-((Dimethyl(oxo)-λ^6-sulfaneylidene)amino)-4-(1-methyl-1H-indol-3-yl)pyrimidin-2-yl)amino)-2-((2-(dimethylamino)ethyl)(methyl)amino)-4-methoxyphenyl)acrylamide] | 
8 | 6.88 | C=CC(=O)Nc1cc(Nc2ncc(C(=O)NCc3ccccc3)c(-c3cn(C)c4ccccc34)n2)c(OC)cc1N(C)CCN(C)C [Example 33, 2-((5-Acrylamido-4-((2-(dimethylamino)ethyl)(methyl)amino)-2-methoxyphenyl)amino)-N-benzyl-4-(1-methyl-1H-indol-3-yl)pyrimidine-5-carboxamide] | 
9 | 6.88 | C=CC(=O)Nc1cc(Nc2ncc(C(=O)NCc3ccc(F)cc3)c(-c3cn(C)c4ccccc34)n2)c(OC)cc1N(C)CCN(C)C [Example 142, 2-((5-Acrylamido-4-((2-(dimethylamino)ethyl)(methyl)amino)-2-methoxyphenyl)amino)-N-(4-fluorobenzyl)-4-(1-methyl-1H-indol-3-yl)pyrimidine-5-carboxamide] | 
10 | 6.92 | C=CC(=O)Nc1cc(Nc2ncc(C(F)(F)F)c(-c3cn(C4CC4)c4ccccc34)n2)c(OC)cc1N1C[C@H]2CN(C)C[C@H]2C1 [Example 27, N-(5-((4-(1-Cyclopropyl-1H-indol-3-yl)-5-(trifluoromethyl)pyrimidin-2-yl)amino)-4-methoxy-2-((3aR,6aS)-5-methylhexahydropyrrolo[3,4-c]pyrrol-2(1H)-yl)phenyl)acrylamide] | 
11 | 7.05 | C=CC(=O)Nc1cc(Nc2ncc(C(=O)OC)c(-c3cn(C)c4ccccc34)n2)c(OC)cc1N1C[C@@H]2C[C@H]1CN2C [Example 25, Methyl 2-((5-acrylamido-2-methoxy-4-((1S,4S)-5-methyl-2,5-diazabicyclo[2.2.1]heptan-2-yl)phenyl)amino)-4-(1-methyl-1H-indol-3-yl)pyrimidine-5-carboxylate] | 
12 | 7.08 | C=CC(=O)Nc1cc(Nc2ncc(C(=O)NC3CC3)c(-c3cn(C)c4ccccc34)n2)c(OC)cc1N1C[C@H]2CN(C)C[C@H]2C1 [Example 32, 2-((5-Acrylamido-2-methoxy-4-((3aR,6aS)-5-methylhexahydropyrrolo[3,4-c]pyrrol-2(1H)-yl)phenyl)amino)-N-cyclopropyl-4-(1-methyl-1H-indol-3-yl)pyrimidine-5-carboxamide] | 
13 | 7.14 | C=CC(=O)Nc1cc(Nc2ncc(-c3cccs3)c(-c3cn(C4CC4)c4ccccc34)n2)c(OC)cc1N1C[C@H]2CN(C)C[C@H]2C1 [Example 46, N-(5-((4-(1-Cyclopropyl-1H-indol-3-yl)-5-(thiophen-2-yl)pyrimidin-2-yl)amino)-4-methoxy-2-((3aR,6aS)-5-methylhexahydropyrrolo[3,4-c]pyrrol-2(1H)-yl)phenyl)acrylamide] | 
14 | 7.20 | C=CC(=O)Nc1cc(Nc2ncc(Br)c(-c3cn(C4CC4)c4ccccc34)n2)c(OC)cc1N1C[C@H]2CN(C)C[C@H]2C1 [Example 28, N-(5-((5-Bromo-4-(1-cyclopropyl-1H-indol-3-yl)pyrimidin-2-yl)amino)-4-methoxy-2-((3aR,6aS)-5-methylhexahydropyrrolo[3,4-c]pyrrol-2(1H)-yl)phenyl)acrylamide] | 
15 | 7.29 | C=C(F)C(=O)Nc1cc(Nc2ncc(-c3ncco3)c(-c3cn(C4CC4)c4ccccc34)n2)c(OC)cc1N1CC(N(C)C)C1 [Example 66, N-(5-((4-(1-Cyclopropyl-1H-indol-3-yl)-5-(oxazol-2-yl)pyrimidin-2-yl)amino)-2-(3-(dimethylamino)azetidin-1-yl)-4-methoxyphenyl)-2-fluoroacrylamide] | 
